Reference: PMC11459959, “Discovery of new acetamide derivatives of 5-indole-1,3,4-oxadiazol-2-thiol as inhibitors of HIV-1 Tat-mediated viral transcription” (Antimicrobial Agents and Chemotherapy, 2024)
Read-outs that look alike come from different tables or passages of the source.

How the values were obtained:
[1] = system: HIV-1NL4-3; experiment: HIV-1 infectivity in TZM-bl cells (F-Luc); assay type: cell-based; conditions: for EC50: Human immunodeficiency virus 1, TZM-bl, 48 h
Method: (§6) The TZM-bl cells (also referred to as JC53BL-13) expressing human CD4, CXCR4, and CCR5 carrying the F-Luc and lacZ genes downstream of the HIV-1 LTR promoter ([60]) were used to determine the inhibitory effect of the compounds on HIV-1 infection, as previously described ([11], [12], [61]). In brief, 1 × 10^4 cells were cultured in 96-well plates for 24 h and subsequently treated with compounds at the indicated concentrations. Without replacement of the culture medium, the cells were subsequently infected with the HIV-1NL4-3 wild-type or ARV-resistant HIV-1 strains at an MOI of 1 to determine the exact inhibitory effect of compounds on a single-round infection. After 48 h, the inhibitory effect of the compounds was determined using a Bright Glo luciferase assay kit (Promega) or β-Galactosidase Enzyme Assay kit (Promega). The infectivity data were presented as a percentage relative to the dimethyl sulfoxide (DMSO) control (vehicle). Cell viability was determined using the resazurin-based PrestoBlue Cell Viability Reagent (Thermo Fisher Scientific, Waltham, MA, USA) following the manufacturer’s instructions.

[2] = system: NRTI-resistant HIV-1 strain 7406; experiment: microbe, parasite or virus in culture; assay type: cell-based; conditions: Human immunodeficiency virus 1, TZM-bl
Method: (§1) Fig 7 (A–C) TZM-bl cells (1 × 10^4 cells/well) cultured in a 96-well plate were treated with fivefold serial dilutions of the indicated compound or ARV for 1 h before infection with the HIV-1NL4-3 or ARV-resistant HIV-1 strains at an MOI of 1, respectively. At 48 h after infection, the EC50 values were determined using an F-Luc activity. The symbols represent the fold-change values of EC50 against each mutant virus relative to the wild-type (WT) virus. (D) PBMCs (5 × 10^4 cells/well) were infected with the HIV-1NL4-3 and PIs-resistant HIV-1 strain at an MOI of 0.1, respectively. Subsequently, the PBMCs were treated with 10-fold serial dilutions of the indicated compounds or PI. At 3 days after infection, the EC50 values on the viral replication were determined using a p24 […] assay kit. (E) The inhibitory kinetics for the WT and ARV-resistant viruses. TZM-bl cells infected with WT or ARV-resistant viruses were cultured upon fivefold serial dilutions of each compound for 2 days and the infectivity was determined using an F-Luc activity.
(§2) The Tzm-bl-derived dual Tat reporter; TZM-bl/Tat/Rluc (bl-DTR) cells were established from TZM-bl cells using two Dox-inducible lentiviral expression cassettes cloned with Flag-tagged Tat86 and the R-Luc gene, as described in our previous study ([11]). TZM-bl, A3.01, J1.1, and J-Lat 6.3 cells as well as the HIV-1 molecular clone pNL4-3, pNL(AD8), ARV-resistant HIV-1 strains, and HIV-1NL43-IRES-eGFP (pBR43IeG-nef^+, gifted by Dr. Frank Kirchhoff) ([52]) were provided by the National Institute of Health HIV Reagent Program (NIH, Bethesda, MD, USA). HeLa (CCL-2) and 293T (CRL-3216) cell lines were purchased from the American Type Culture Collection (ATCC, Manassas, VA, USA). The bl-DTR, TZM-bl, HeLa, and 293T cells were cultured in Dulbecco’s modified Eagle’s medium supplemented with 1% penicillin–streptomycin and 10% (vol/vol) heat-inactivated fetal bovine serum (all from Gibco-BRL, Gaithersburg, MD, USA), and 1 µg/mL of puromycin and 200 µg/mL of zeocin were additionally supplemented for the bl-DTR cells. PBMCs were purchased from AllCells (Alameda, CA, USA) and cultured as previously described ([12]). The information on ARV-resistant HIV-1 strains was described in previous reports as follows: NNRTI-resistant 12241 and 12243 ([53]); NRTI-resistant 7396, 7406, and 7407 ([54]); INSTI-resistant 11847 and 11849 ([55], [56]); and PI-resistant 11800 and 11803 ([57]). Each molecular HIV-1 clone was transfected to 293T cells, as previously described ([58]), to obtain infectious HIV-1 particles. Virus-containing cell culture supernatants were collected 3 days after transfection, and filtered through a 0.45-µm membrane filter (Millipore Sigma, Burlington, MA, USA) to remove cell debris. The viral titration was performed as described previously ([59]) with some minor modifications. In brief, 1 × 10^4 TZM-bl cells seeded in 96-well plates were infected with 200 µL of virus-containing medium diluted serially twofold. The incubation was for 2 days and the experiment was performed in triplicate; the infection time minimized the virus spread ([59]). The titration of the infectious viral particles was performed with a ß-Gal staining assay using the ßeta-Galactosidase Staining Kit (Mirus Bio, Madison, WI, USA) following the manufacturer’s protocols. In brief, the infected cells were washed with phosphate-buffered saline (PBS) and fixed using a Cell Fixative Working solution. The cells were washed with PBS and stained using the Cell Staining Working Solution containing X-gal. The infected blue-colored cells were counted under a microscope (100× magnification). The infectious virus titer was determined as a mean value of blue-colored cells count × dilution factor and used for determining the multiplicity of infection (MOI) in each infection experiment.

[3] = system: NRTI-resistant HIV-1 strain 7396; experiment: microbe, parasite or virus in culture; assay type: cell-based; conditions: Human immunodeficiency virus 1, TZM-bl
Method: as §1, §2

[4] = system: NRTI-resistant HIV-1 strain 7407; experiment: microbe, parasite or virus in culture; assay type: cell-based; conditions: Human immunodeficiency virus 1, TZM-bl
Method: as §1, §2

[5] = system: HIV-1NL4-3; experiment: Time-of-addition assay in TZM-bl cells; assay type: cell-based; conditions: HIV-1NL4-3 MOI 1, 9 and 13 1.5 μM, T-20 1 µM, triptolide 5 nM, ARVs 1 µM, F-Luc at 54 h
Method: Fig 5 (A) Time-of-addition assay. […] Subsequently, the cells were treated with the compounds at the indicated time points (0, 1, 2, 4, 6, 8, 10, 12, 24, 30, 36, 42, and 48 h) after HIV-1 infection. The final concentrations of compounds are described in Materials and Methods. Viral activity according to the timing of drug addition was measured as F-Luc activity at 54 h after infection. The relative activities are represented as the mean ± SD (n = 3) compared with the activity observed 54 h post-infection. The relative time frames associated with each HIV-1 infection step are defined based on the time frame of susceptibility to the drug that blocks that particular infection step. […] At 16 h after infection, the viral reverse transcription (RT) product (viral cDNA) level was determined by quantitative real-time PCR (RT-qPCR) using gag and 18S rRNA primer sets and represented as the mean ± SD (n = 3) normalized against the amount of the 18S rRNA compared with the DMSO control. **P < 0.01 compared with the vehicle (DMSO). (C) An in vitro integrase (IN) assay was performed with 10 µM of the indicated compounds following the manufacturer’s protocol. **P < 0.01 compared with vehicle (DMSO). (D) A3.01 cells were infected with HIV-1 upon treatment with the indicated compounds (5 µM) and ARVs (EFV and DTG) as the experimental controls. At 40 h after infection, cellular chromosomal DNA was purified, and the integrated proviral DNA was detected through nested Alu-PCR amplification.
A time-of-addition assay was performed as previously described ([25]) with minor modifications. […] Reference drug and test compounds were subsequently added at the indicated time (0, 1, 2, 4, 6, 8, 10, 12, 24, 30, 36, 42, and 48 h after infection). Final concentrations were as follows: compounds 9 and 13 (1.5 μM), T-20 (1 µM), Triptolide (5 nM), and ARVs (AZT, EFV, DTG, RAL) (1 µM). The viral activity according to the timing of drug addition was measured using a Bright Glo luciferase assay kit (Promega). Virus activity curves present a % activity relative to the activity observed at 54 h after infection, and the data are presented as the mean ± standard deviation (SD) (n = 3). The relative time frame associated with each HIV-1 infection step was defined based on the sensitivity to each drug that blocks a particular infection step.

[6] = Cell viability of TZM-bl cells (PrestoBlue); assay type: cell-based; conditions: human
Method: as §6

[7] = system: general cellular transcription/translation (R-Luc); experiment: Dual-reporter assay, R-Luc in bl-DTR cells; assay type: cell-based; conditions: doxycycline, 24 h
Method: (§3) Fig 1 (A) (Top panel) Schematic representation of the primary compound screening using a dual-reporter system. […] (B). […] (Top graphs) bl-DTR cells (1 × 10^4) were treated with twofold serial dilutions of each compound before doxycycline (Dox) addition (final concentration, 50 ng/mL). After 24 h of treatment, the activities of firefly luciferase (F-Luc, red line) and Renilla luciferase (R-Luc, blue line) were determined using the Dual-Glo Luciferase assay system. (Bottom graphs) TZM-bl cells were treated with each indicated compound and subsequently infected with the HIV-1NL4-3 strain at a multiplicity of infection (MOI) of 1. At 48 h after infection, the viral infectivity (purple line) and cell viability (green line) were determined using the Bright-Glo luciferase assay kit and the PrestoBlue Cell Viability Reagent, respectively. […] (C). […] The targeted moieties for the SAR study are marked with dotted-circle lines.
as §2

[8] = system: Tat-mediated LTR transcription; experiment: Dual-reporter assay, F-Luc (Tat-mediated LTR transcription) in bl-DTR cells; assay type: cell-based, HIV-1; conditions: Human immunodeficiency virus 1, 24 h, read-out: IC50 of F-Luc (Tat)
Method: as §3, §2

[9] = system: HIV-1NL4-3 IRES-eGFP-nef+; experiment: eGFP-encoding HIV-1 infection of TZM-bl cells; assay type: cell-based; conditions: 9, 10, 13 1.5 μM, 20, 21, 22 4 μM, seliciclib 10 µM, triptolide 5 nM, DTG 2 nM, EFV 2 nM, 2 days
Method: Fig 4 (A) Comparison of the chemical structures between prominent derivatives (9, 10, and 13) and non-functional derivatives (20, 21 and 22). (B) bl-DTR cells were treated with serial dilutions of each compound upon Dox for 24 h. The activities of F-Luc and R-Luc were determined using the Dual-Glo -Luciferase assay system. (C) TZM-bl cells were infected with the HIV-1NL4-3 strain at an MOI of 1 upon treatment of compounds. At 48 h after infection, the viral infectivity and cell viability were determined as described above (Fig. 1). (D) TZM-bl cells were infected with HIV-1NL4-3 IRES-eGFP virus along with the compound treatment. Two days later, GFP-expressing cells were observed by fluorescence microscopy (100× magnification). […] At 48 h after infection, the β-gal activity indicating viral infectivity was determined using the β-gal Enzyme Assay kit. F-Luc activity and cell viability were determined as described above (Fig. 4C). (C and E) The dose-response curves show the relative activity compared with that of the DMSO vehicle (mean ± SD; n = 3).

[10] = Cell viability of A3.01 cells; assay type: cell-based; conditions: human; A3.01 cells, absence of HIV-1 infection; mean ± SD; read-out: CC50
Method: (§4) The p24 level from the cell supernatant was subsequently determined using a p24 […] kit (PerkinElmer). In parallel, the cell viability was determined without viral infection because of the viral cytopathic effect. […] In parallel, cell viability was determined. The data (A and B) are presented as the mean ± SD (n = 3). (C) PBMCs (4 × 10^5) infected with HIV-AD8 at an MOI of 0.1 were treated with 1.5 µM of the compounds or ARVs for 3 days. The levels of p24 and cell viability were subsequently determined. (D) J1.1 cells were cultured with the compounds ([…]) under 50 ng/mL phorbol myristate acetate (PMA) treatment for 2 days. The level of p24 was subsequently determined. (E) J-Lat 6.3 cells were treated with the compounds (1.5 µM) under 1 µg/mL of PMA for 2 days. The GFP-positive cell population was analyzed using flow cytometry. The data are represented as a value relative to the DMSO-treated vehicle (D) and a percent of the GFP^+ cell population (E) as mean ± SD (n = 3).
(§5) The inhibitory effects of the compounds on viral replication were determined with some minor modifications, as previously described ([12], [62]). […] PBMCs (4 × 10^5) pre-activated with PHA-M for 3 days were washed with fresh media to remove excess PHA-M and subsequently infected with HIV-1NL4-3 or HIV-1AD8 or PIs-resistant HIV-1 strains as A3.01 infection. After infection, the infectious media were replaced with fresh media supplemented with international 10 units (IU)/mL of IL-2 and the indicated compounds. At 72 h after infection, the inhibitory effect of the compounds on viral replication was determined by measuring the p24 amount, an HIV capsid protein, using an HIV-1 p24 […] kit (PerkinElmer, Waltham, MA, USA). Cell viability was determined as described above. The inhibitory effects on provirus reversing in J1.1 and J-Lat 6.3 cells were determined as previously described ([12], [41], [63]) with some minor modifications. Briefly, 5 × 10^4 persistently HIV-1-infected J1.1 or J-Lat 6.3 cells were cultured in either the presence or absence of the compounds at a final concentration of 1.5 µM and treated with PMA (50 ng/mL for J1.1 cells, 1 µg/mL for J-Lat 6.3 cells). Two days after treatment, the levels of viral production were determined using p24 […] for J1.1 cells and flow cytometry analysis for GFP-expressing J-Lat 6.3 cells.

[11] = Cell viability of PBMCs; assay type: cell-based; conditions: human; PBMCs, absence of HIV-1 infection; mean ± SD; read-out: CC50
Method: as §4, §5

## Nc1ccn([C@@H]2CS[C@H](CO)O2)c(=O)n1 [Compound 3TC, lamivudine]
[1]; Table S1, WT virus, TZM-bl, fivefold serial dilutions, MOI 1, 48 h
  EC50: 1.23 ± 0.22 µM
[2]
  EC50: > 100 µM
[3]
  EC50: 3.64 ± 1.37 µM
[4]
  EC50: > 100 µM

## enfuvirtide [Compound T-20]
[5]
  time of administration after infection at which effectiveness began to decrease / was lost: 1 h

## Cc1[nH]c2ccc(-c3nnc(SCC(=O)N4CCCC(C)C4)o3)cc2c1C (stereo not shown) [Compound 10, 2-((5-(2,3-Dimethyl-1H-indol-5-yl)-1,3,4-oxadiazol-2-yl)thio)-1-(3-methylpiperidin-1-yl)ethan-1-one]
[6]
  CC50 at 48 h: 82.5 ± 6.41 µM
[7]
  Relative R-Luc activity at IC50 of F-Luc: >100
[8]
  IC50: 1.1 ± 0.07 µM
[1]; TZM-bl cells infected with HIV-1NL4-3 at MOI 1, 48 h, F-Luc, mean ± SD, read-out: EC50
  EC50: 0.56 ± 0.05 µM
[1]; TZM-bl cells
  SI (CC50/EC50): 147.27
[9]
  inhibition of viral-expressed eGFP signal: remarkably inhibited

## CC[C@H](CO)Nc1nc(NCc2ccccc2)c2ncn(C(C)C)c2n1 [seliciclib, reference compound]
[6]; TZM-bl cells, absence of HIV-1 infection, mean ± SD, read-out: CC50
  CC50 at 48 h: 39.2 ± 4.09 µM
[10]
  CC50 at 3 days: 27 ± 1.12 µM
[11]
  CC50 at 3 days: 21.4 ± 2.1 µM
[9]
  inhibition of viral-expressed eGFP signal: remarkably inhibited

## Nc1nc(NC2CC2)c2ncn([C@H]3C=C[C@@H](CO)C3)c2n1 [ABC, abacavir]
[1]; Table S1, WT virus, TZM-bl, fivefold serial dilutions, MOI 1, 48 h, read-out: EC50
  EC50: 12.2 ± 7.48 µM
[2]
  EC50: > 100 µM
[3]
  EC50: 22.4 ± 0.39 µM
[4]
  EC50: > 100 µM
